# Reference: patent publication US20190231757A1, “COMBINATION OF SPLEEN TYROSINE KINASE INHIBITORS AND OTHER THERAPEUTIC AGENTS” (Takeda Pharmaceutical Company Limited, priority 2016, published 2019)
# Counter-ions that a name gives are not always drawn.
# Key:
# [1] = system: CT26 mouse syngeneic colon cancer model; assay: CT26 mouse syngeneic colon cancer model, prior non-clinical study; format: in vivo; details: single agents
# [2] = system: OCI-Ly10 human lymphoma xenografts; assay: Antitumor activity in SCID mice bearing OCI-Ly10 human lymphoma xenografts, bendamustine and rituximab (Example 6); format: in vivo, mouse; details: Day 21, citrate
# [3] = system: A20 mouse syngeneic B-cell lymphoma; assay: Antitumor activity in Balb/c mice bearing A20 syngeneic B-cell lymphoma (Example 1); format: in vivo
# [4] = Compound A 60 mg/kg PO QD, anti-PD-1 10 mg/kg IP Q4D x3, alone or combined, Day 19
compound,measurement,setting,value
"Cn1cc(-c2nc(N[C@@H]3CCCC[C@@H]3N)c(F)c3c2C(=O)NC3)cn1 [Compound A, 6-((1R,2S)-2-aminocyclohexylamino)-7-fluoro-4-(1-methyl-1H-pyrazol-4-yl)-1H-pyrrolo[3,4-c]pyridine-3 (2H)-one citrate]",animals survived to 30 days after the last dose,[1],20%
same,TGI,"[2]; Compound A 30 mg/kg PO QD x21, bendamustine 1 mg/kg IV BIW, rituximab 1 mg/kg IV QW x3, alone or combined",24.2%
same,TGI,"[2]; Compound A 60 mg/kg PO QD x21, 60 mg/kg",51.1%
same,Mean Tumor Volume (mm^3) ± SEM,"[3]; Compound A 60 mg/kg PO QD 21 d, anti-PD-1 10 mg/kg IP Q4D x3, alone or combined, Day 19","1,582.9 ± 317.2 mm^3"
same,T/C,[3]; [4],0.85
same,TGI (%),[3]; [4],15.3%
same,"dAUC (percent decrease in AUC, pairwise comparison)","[3]; reference 0.5% methylcellulose, Compound A 60 mg/kg, anti-PD-1 10 mg/kg, days >19 excluded",10.2
